Test results reported in patent US4385175A, “Esters of retinoic acid and azetidinone derivatives” (Bristol-Myers Company, priority 1982, dated 1983).
Like-named read-outs stand apart in the source and are kept apart here.

Test system: squamous metoplasia and keratinization in organ cultures of trachea derived from vitamin A-deficient hamsters
Test: inhibition of squamous metaplasia and keratinization (reversal of keratinization) in tracheal organ cultures
Type: cell-based, hamster
Settings: Mesocricetus auratus, read-out: Reversal of Keratinization ED50
[1] = median effective dose: dose required for reversal of keratinization of 50% of the explants, by probit analysis, hamster trachea organ culture

Structure (SMILES) | EC50 [1] | EC50
CC1=C(/C=C/C(C)=C/C=C/C(C)=C/C(=O)OCc2ccccc2N2C(=O)[C@@H](N=[N+]=[N-])[C@H]2/C=C/c2ccccc2)C(C)(C)CCC1 (relative stereo) [Compound IV] | 0.407 nM | 
CC1=C(/C=C/C(C)=C/C=C/C(C)=C/C(=O)OCc2cccc3c2N2C(=O)[C@@H](NC(=O)Cc4ccccc4)[C@H]2CO3)C(C)(C)CCC1 (relative stereo) [Compound VI] | 0.39 nM | 
CC1=C(/C=C/C(C)=C/C=C/C(C)=C/C(=O)OCc2ccccc2N2C(=O)[C@@H](NC(=O)Cc3ccccc3)[C@H]2/C=C/c2ccccc2)C(C)(C)CCC1 (relative stereo) [Compound V] | 0.198 nM | 
CC1=C(/C=C/C(C)=C/C=C/C(C)=C/C(=O)OC(C(=O)c2ccccn2)c2ccccn2)C(C)(C)CCC1 (centres unmarked) [Compound VII] | 0.31 nM | 
CC1=C(/C=C/C(C)=C/C=C/C(C)=C/C(=O)O)C(C)(C)CCC1 [β-All-trans-retinoic acid, reference compound] |  | 0.115 nM
